The compounds below were run against Protein Wiz (Homo sapiens, UniProt O95785) (assay: Induction of HiBit-tagged WIZ protein degradation expressed in HEK293T cells assessed as reduction in WIZ protein level incubated for 18 hrs by luminescence based assay).
Type: cell-based

Chain of Protein Wiz (O95785 whole entry): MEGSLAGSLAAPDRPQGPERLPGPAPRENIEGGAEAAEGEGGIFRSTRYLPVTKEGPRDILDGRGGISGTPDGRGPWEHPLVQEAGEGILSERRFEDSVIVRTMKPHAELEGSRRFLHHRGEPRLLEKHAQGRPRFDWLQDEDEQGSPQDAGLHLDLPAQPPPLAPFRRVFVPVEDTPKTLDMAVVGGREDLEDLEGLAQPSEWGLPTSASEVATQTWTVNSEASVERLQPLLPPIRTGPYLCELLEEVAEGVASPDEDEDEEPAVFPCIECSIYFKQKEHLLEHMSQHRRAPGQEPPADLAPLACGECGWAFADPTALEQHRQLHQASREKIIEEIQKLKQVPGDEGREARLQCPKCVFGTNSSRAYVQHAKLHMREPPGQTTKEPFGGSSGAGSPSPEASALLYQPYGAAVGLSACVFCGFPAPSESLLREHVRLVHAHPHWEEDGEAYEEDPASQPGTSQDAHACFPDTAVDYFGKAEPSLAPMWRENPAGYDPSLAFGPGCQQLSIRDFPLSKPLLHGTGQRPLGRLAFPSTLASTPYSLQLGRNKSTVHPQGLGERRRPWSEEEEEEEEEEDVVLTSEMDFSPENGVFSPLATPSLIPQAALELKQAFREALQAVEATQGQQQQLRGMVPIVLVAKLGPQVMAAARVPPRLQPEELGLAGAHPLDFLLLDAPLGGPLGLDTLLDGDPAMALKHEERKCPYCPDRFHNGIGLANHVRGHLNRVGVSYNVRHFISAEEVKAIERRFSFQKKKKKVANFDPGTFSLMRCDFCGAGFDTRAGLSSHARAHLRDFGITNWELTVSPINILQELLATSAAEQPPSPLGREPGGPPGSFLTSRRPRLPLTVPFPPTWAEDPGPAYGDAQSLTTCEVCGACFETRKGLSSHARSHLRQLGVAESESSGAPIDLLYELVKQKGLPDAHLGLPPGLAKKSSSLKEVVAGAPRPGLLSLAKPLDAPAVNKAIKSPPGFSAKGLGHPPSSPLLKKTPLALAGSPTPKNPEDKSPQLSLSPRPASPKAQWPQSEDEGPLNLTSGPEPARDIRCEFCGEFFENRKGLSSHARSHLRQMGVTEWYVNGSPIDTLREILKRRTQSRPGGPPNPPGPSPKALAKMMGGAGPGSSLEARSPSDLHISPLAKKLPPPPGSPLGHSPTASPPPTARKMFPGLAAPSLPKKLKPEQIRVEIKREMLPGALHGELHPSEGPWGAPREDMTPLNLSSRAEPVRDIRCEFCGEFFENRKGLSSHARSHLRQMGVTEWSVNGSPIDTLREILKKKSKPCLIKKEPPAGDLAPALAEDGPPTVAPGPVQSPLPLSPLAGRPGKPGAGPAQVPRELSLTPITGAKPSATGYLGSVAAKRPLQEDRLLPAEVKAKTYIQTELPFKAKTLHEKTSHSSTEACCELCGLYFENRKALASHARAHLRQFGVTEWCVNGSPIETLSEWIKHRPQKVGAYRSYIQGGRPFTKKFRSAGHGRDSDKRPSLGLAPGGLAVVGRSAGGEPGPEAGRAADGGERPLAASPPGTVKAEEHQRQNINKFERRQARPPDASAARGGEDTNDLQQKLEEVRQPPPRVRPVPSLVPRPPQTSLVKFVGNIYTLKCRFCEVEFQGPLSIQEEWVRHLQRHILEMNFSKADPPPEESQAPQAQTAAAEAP

Row | AC50 | SMILES
1 | 0.52 nM | COc1ccc(CN2CCCC[C@@H]2COc2ccc3c(c2)CN(C2CCC(=O)NC2=O)C3=O)c(OC)c1 (stereo partly specified)
2 | 0.35 nM | O=C1CCC(N2Cc3cc(OC[C@H]4CCCCN4Cc4ccc(C5=CCOCC5)cc4)ccc3C2=O)C(=O)N1 (stereo partly specified)
3 | 0.22 nM | O=C1CCC(N2Cc3cc(OC[C@H]4CCCCN4Cc4ccc(C5(C(F)(F)F)CC5)cc4)ccc3C2=O)C(=O)N1 (stereo partly specified)
4 | 0.083 nM | CC(C)(C)c1ccc(CN2CCCC[C@@H]2COc2ccc3c(c2)CN(C2CCC(=O)NC2=O)C3=O)cc1 (stereo partly specified)
5 | 0.47 nM | O=C1CCC(N2Cc3cc(OC[C@H]4CCCCN4Cc4ccc5c(c4)OC(F)(F)O5)ccc3C2=O)C(=O)N1 (stereo partly specified)
6 | 0.37 nM | O=C1CCC(N2Cc3cc(OC[C@H]4CCCCN4Cc4ccc(N5CCCCC5)cc4)ccc3C2=O)C(=O)N1 (stereo partly specified)
